Laboratory results: ChEMBL document CHEMBL5223170, “Potent and Selective Biaryl Amide Inhibitors of Hematopoietic Progenitor Kinase 1 (HPK1)” (ACS Med Chem Lett, 2023)
≈ marks a conversion by molar mass, not a printed value.

Assays:
[1] = in vitro; conditions: human, liver microsomes
[2] = physchem; conditions: SGF buffer

COc1cccc(F)c1-c1nccc(C(=O)Nc2cc(F)c3c(cnn3C)c2N2C[C@@H](N)C[C@H]2CO)n1
CLint scaled at 0.5 h [1]: > 18.3 mL/min/kg
solubility [2]: 350 µg/mL (≈ 687 µM)
